The values below come from patent US10906897B2, “Microbiocidal heterobicyclic derivatives” (priority 2015, dated 2021).

Series [1] deals with Fusarium culmorum. Nature of the series: microbe, parasite or virus in culture. Type of series: cell-based. The note with it: read-out: control of Fusarium culmorum.
In series [2] the test system is Gaeumannomyces graminis. Nature of the series: Gaeumannomyces graminis / liquid culture (Take-all of cereals). Type of series: cell-based. The note with it: growth inhibition photometrically 4-5 days after application, compared to untreated control.
In series [3] the test system is Botryotinia fuckeliana (Botrytis cinerea). Nature of the series: Botryotinia fuckeliana (Botrytis cinerea) / liquid culture (Gray mould). Type of series: cell-based. The note with it: growth inhibition photometrically 3-4 days after application, compared to untreated control.
Series [4] deals with Magnaporthe grisea (Pyricularia oryzae). Nature of the series: whole plant or invertebrate. Type of series: in vivo. The note with it: foliar, read-out: control of Magnaporthe grisea.
The test system of series [5] is Monographella nivalis (Microdochium nivale). Nature of the series: Monographella nivalis (Microdochium nivale) / liquid culture (foot rot cereals). Type of series: cell-based. The following applies: 96 h, growth inhibition photometrically 4-5 days after application, compared to untreated control.
For series [6], the system named is Glomerella lagenarium (Colletotrichum lagenarium). Nature of the series: Glomerella lagenarium (Colletotrichum lagenarium) / liquid culture (Anthracnose). Type of series: cell-based. The following applies: Colletotrichum orbiculare, growth inhibition photometrically 3-4 days after application, compared to untreated control.
Series [7] has as its system Sclerotinia sclerotiorum. Nature of the series: Sclerotinia sclerotiorum / liquid culture (cottony rot). The following applies: read-out: control of Sclerotinia sclerotiorum.
Method: Sclerotinia sclerotiorum/Liquid Culture (Cottony Rot)
Mycelia fragments of a newly grown liquid culture of the fungus are directly mixed into 5 nutrient broth (Vogels broth). After placing a (DMSO) solution of test compound into a microtiter plate (96-well format) the nutrient broth containing the fungal material is added. The test plates are incubated at 24° C. and the inhibition of growth is determined photometrically 3-4 days after application.
Series [8] concerns Magnaporthe grisea (Pyricularia oryzae). Nature of the series: microbe, parasite or virus in culture. Type of series: cell-based. The note with it: read-out: control of Magnaporthe grisea.

Consider `CC1(C)N=C(c2cnc3c(F)cccn23)c2cccc(F)c2C1(C)C` [Compound E-6, 5-fluoro-1-(8-fluoroimidazo[1,2-a]pyridin-3-yl)-3,3,4,4-tetramethyl-isoquinoline], for which the melting point (usually the temperature of the solid-liquid transition) lay in the range of 156 to 157 °C. In addition, in [1], the inhibition of growth at 20 ppm is not below 80%. The same compound came in with an inhibition of growth at 20 ppm in series [2] not below 80%. Besides, the inhibition of growth at 20 ppm in series [3] is not below 80%. Moreover, the pest or weed control at 200 ppm in series [4] was not below 50%. Besides, in series [5], the inhibition of growth at 20 ppm is not below 80%. Further, in series [6], the inhibition of growth at 20 ppm was not below 80%.
`Cc1cccn2c(C3=NC(C)(C)C(C)(C)c4c(F)cccc43)cnc12` [Compound E-9, 5-fluoro-3,3,4,4-tetramethyl-1-(8-methylimidazo[1,2-a]pyridin-3-yl)isoquinoline] returned a melting point of 160 to 161 °C. The inhibition of growth at 20 ppm in series [1] is not below 80%. In series [2], this compound displayed an inhibition of growth at 20 ppm not below 80%. Moreover, the inhibition of growth at 20 ppm in series [3] is not below 80%. Moreover, the pest or weed control at 200 ppm in series [4] is not below 50%. The compound further registered an inhibition of growth at 20 ppm in [5] not below 80%. The compound also registered an inhibition of growth at 20 ppm in series [6] not below 80%.
As to `Cc1ccn2c(C3=NC(C)(C)C(C)(C)c4c(F)cccc43)cnc2c1C` [Compound E-50, 1-(7,8-dimethylimidazo[1,2-a]pyridin-3-yl)-5-fluoro-3,3,4,4-tetramethyl-isoquinoline], the melting point was 185 to 186 °C. In addition, the inhibition of growth at 20 ppm in series [7] is not below 80%. In series [1], the inhibition of growth at 20 ppm was not below 80%. In series [3], this compound gave an inhibition of growth at 20 ppm not below 80%. The compound also returned an inhibition of growth at 20 ppm in series [6] not below 80%. Moreover, the inhibition of growth at 60 ppm in [8] was not below 80%.
Regarding `Cc1cccn2c(C3=NCC(C)(C)c4ccccc43)cnc12` [Compound E-51, 4,4-dimethyl-1-(8-methylimidazo[1,2-a]pyridin-3-yl)-3H-isoquinoline], the inhibition of growth at 20 ppm in series [7] and in series [3] was not below 80% in each case. Also, the inhibition of growth at 60 ppm in series [8] was not below 80%.
As to `Cc1cccn2c(C3=NC4(CCC4)Cc4ccccc43)cnc12` [Compound E-52, 1-(8-methylimidazo[1,2-a]pyridin-3-yl)spiro[4H-isoquinoline-3,1′-cyclobutane]], the inhibition of growth at 20 ppm in [7], in [3], in [5] and in series [6] was not below 80% each time. Further, the inhibition of growth at 60 ppm in series [8] was not below 80%.
Regarding `Cc1ccn2c(C3=NC(C)(C)C(F)(F)c4ccccc43)cnc2c1` [Compound E-55, 4,4-difluoro-3,3-dimethyl-1-(7-methylimidazo[1,2-a]pyridin-3-yl)isoquinoline], the inhibition of growth at 20 ppm in [7], in series [1], in [3] and in [6] was not below 80% each time. In addition, the inhibition of growth at 60 ppm in series [8] is not below 80%.
As to `Cc1cccc2c(C3=NC(C)(C)C(C)(C)c4c(F)cccc43)cnn12` [Compound E-59, 5-fluoro-3,3,4,4-tetramethyl-1-(7-methylpyrazolo[1,5-a]pyridin-3-yl)isoquinoline], the melting point lay within 134 to 136 °C. For the same compound, the inhibition of growth at 20 ppm in [1] is not below 80%. In series [3], this compound gave an inhibition of growth at 20 ppm not below 80%. In addition, the pest or weed control at 200 ppm in series [4] was not below 50%. The compound also gave an inhibition of growth at 20 ppm in series [5] not below 80%. In [6], this compound displayed an inhibition of growth at 20 ppm not below 80%.
`Cc1ccc2c(C3=NC(C)(C)C(C)(C)c4c(F)cccc43)cnn2c1C` [Compound E-63, 1-(6,7-dimethylpyrazolo[1,5-a]pyridin-3-yl)-5-fluoro-3,3,4,4-tetramethyl-isoquinoline] showed a melting point of 175 to 176 °C. Besides, the inhibition of growth at 20 ppm in [1] is not below 80%. For the same compound, the inhibition of growth at 20 ppm in series [2] was not below 80%. In [3], the inhibition of growth at 20 ppm is not below 80%. In series [4], the pest or weed control at 200 ppm was not below 50%. In [6], this compound had an inhibition of growth at 20 ppm not below 80%. In addition, the inhibition of growth at 60 ppm in series [8] was not below 80%.
Take `Cc1cccc2c(C3=NC(C)(C)C(=O)c4ccccc43)cnn12` [Compound E-67, 3,3-dimethyl-1-(7-methylpyrazolo[1,5-a]pyridin-3-yl)isoquinolin-4-one]: the melting point fell in the range of 110 to 112 °C. Also, the inhibition of growth at 20 ppm in series [7] is not below 80%. For the same compound, in [1], the inhibition of growth at 20 ppm is not below 80%. In addition, the inhibition of growth at 20 ppm in series [3] was not below 80%. Moreover, in [5], the inhibition of growth at 20 ppm is not below 80%. The compound further came in with an inhibition of growth at 20 ppm in series [6] not below 80%. The inhibition of growth at 60 ppm in series [8] is not below 80%.
`Cc1ccc2c(C3=NC(C)(C)C(=O)c4c(F)cccc43)cnn2c1C` [Compound E-72, 1-(6,7-dimethylpyrazolo[1,5-a]pyridin-3-yl)-5-fluoro-3,3-dimethyl-isoquinolin-4-one]: the melting point was 139 to 141 °C. Also, the inhibition of growth at 20 ppm in series [7] is not below 80%. In [1], the inhibition of growth at 20 ppm is not below 80%. Besides, the inhibition of growth at 20 ppm in series [3] was not below 80%. Further, in series [5], the inhibition of growth at 20 ppm is not below 80%. The same compound displayed an inhibition of growth at 20 ppm in [6] not below 80%. Besides, the inhibition of growth at 60 ppm in [8] is not below 80%.
`Cc1c(Br)ccc2c(C3=NC(C)(C)C(F)(F)c4ccccc43)cnn12` [Compound E-79, 1-(6-bromo-7-methyl-pyrazolo[1,5-a]pyridin-3-yl)-4,4-difluoro-3,3-dimethyl-isoquinoline]: the melting point was 180 to 182 °C. Also, in [7], the inhibition of growth at 20 ppm was not below 80%. In [1], the inhibition of growth at 20 ppm is not below 80%. In [2], the inhibition of growth at 20 ppm is not below 80%. In series [3], the inhibition of growth at 20 ppm was not below 80%. The compound also had an inhibition of growth at 20 ppm in series [6] not below 80%. Further, the inhibition of growth at 60 ppm in series [8] was not below 80%.
As to `CC1(C)N=C(c2cnn3cccc(F)c23)c2ccccc2C1(F)F` [Compound E-89, 4,4-difluoro-1-(4-fluoropyrazolo[1,5-a]pyridin-3-yl)-3,3-dimethyl-isoquinoline], the inhibition of growth at 20 ppm in series [7], in series [1], in series [3], in [5] and in series [6] was not below 80% each time. For the same compound, the inhibition of growth at 60 ppm in series [8] was not below 80%.
Consider `COc1cccc2c(C3=NC(C)(C)C(F)(F)c4ccccc43)cnn12` [Compound E-92, 4,4-difluoro-1-(7-methoxypyrazolo[1,5-a]pyridin-3-yl)-3,3-dimethyl-isoquinoline], for which the melting point is 120 to 124 °C. For the same compound, the inhibition of growth at 20 ppm in series [1] is not below 80%. Also, the inhibition of growth at 20 ppm in series [2] is not below 80%. In [3], this compound registered an inhibition of growth at 20 ppm not below 80%. Besides, the pest or weed control at 200 ppm in series [4] is not below 50%. This compound registered an inhibition of growth at 20 ppm in series [5] not below 80%. The inhibition of growth at 20 ppm in series [6] is not below 80%. Also, the inhibition of growth at 60 ppm in [8] was not below 80%.
Turning to `Cc1ccc2c(C3=NC4(CC4)C4(CC4)c4ccccc43)cnn2c1C` [Compound E-94], the inhibition of growth at 20 ppm in [1], in series [2], in series [5] and in [6] was not below 80% throughout. In addition, the pest or weed control at 200 ppm in series [4] is not below 50%. Moreover, the inhibition of growth at 60 ppm in [8] is not below 80%.
For the compound `Cc1cccn2ncc(C3=NC4(CC4)C4(CC4)c4ccccc43)c12` [Compound E-95], the inhibition of growth at 20 ppm in series [3] and in [6] was not below 80% each time. Further, the pest or weed control at 200 ppm in series [4] was not below 50%. In addition, the inhibition of growth at 60 ppm in series [8] is not below 80%.
